{"source": "paper PMC2831033", "about": "“Characterization of a molecular switch system that regulates gene expression in mammalian cells through a small molecule” (2010)", "key": {"[1]": {"molecular_target": "T1, RXR variant Q275C;I310M;F313I (QCIMFI) (Homo sapiens, UniProt P19793, Q275C/I310M/F313I)", "T1 construct": "gene RXRA; RXR variant LBD with RXR DBD (QCIMFI)", "T1 sequence (P19793 1-462 Q275C/I310M/F313I)": "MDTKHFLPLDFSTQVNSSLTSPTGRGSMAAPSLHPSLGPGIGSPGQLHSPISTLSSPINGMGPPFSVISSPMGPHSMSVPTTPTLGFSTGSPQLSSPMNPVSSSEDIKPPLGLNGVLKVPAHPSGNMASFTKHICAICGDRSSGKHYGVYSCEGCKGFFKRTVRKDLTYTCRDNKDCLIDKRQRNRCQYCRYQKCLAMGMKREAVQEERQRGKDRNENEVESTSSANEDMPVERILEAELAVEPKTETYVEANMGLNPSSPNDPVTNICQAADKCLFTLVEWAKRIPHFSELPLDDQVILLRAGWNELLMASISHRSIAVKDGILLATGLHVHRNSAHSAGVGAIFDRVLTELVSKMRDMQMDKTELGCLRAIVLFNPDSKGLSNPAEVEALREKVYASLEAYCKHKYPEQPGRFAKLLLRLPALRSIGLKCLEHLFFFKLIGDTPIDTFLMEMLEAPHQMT", "test": "luciferase reporter activation in transfected HEK293T cells", "type": "cell-based"}, "[2]": {"molecular_target": "T2, retinoid X receptor wild type (RXRwt) (Homo sapiens, UniProt P19793)", "T2 construct": "gene RXRA; full length RXRwt", "T2 sequence (P19793 whole entry)": "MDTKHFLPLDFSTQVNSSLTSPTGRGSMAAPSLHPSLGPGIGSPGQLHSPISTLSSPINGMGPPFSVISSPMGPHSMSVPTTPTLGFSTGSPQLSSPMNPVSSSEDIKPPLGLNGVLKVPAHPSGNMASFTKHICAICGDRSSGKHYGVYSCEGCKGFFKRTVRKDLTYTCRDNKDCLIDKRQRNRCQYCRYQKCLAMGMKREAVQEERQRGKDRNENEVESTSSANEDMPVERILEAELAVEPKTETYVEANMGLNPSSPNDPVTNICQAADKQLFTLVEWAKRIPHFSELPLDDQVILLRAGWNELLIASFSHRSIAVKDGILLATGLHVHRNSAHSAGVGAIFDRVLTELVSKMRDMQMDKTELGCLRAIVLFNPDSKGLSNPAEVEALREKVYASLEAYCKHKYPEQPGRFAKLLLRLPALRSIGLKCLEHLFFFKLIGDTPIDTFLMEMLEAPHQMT", "test": "luciferase reporter (CRBPII response element) activation in transfected HEK293T cells", "type": "cell-based"}}, "data": [{"substance": "LG335", "values": [{"measurement": "EC50", "setting": "[1]", "result": 38, "unit": "nM"}, {"measurement": "EC50", "setting": "[2]", "result": 338, "unit": "nM"}]}]}
